The target of the assay is T1, Acel0264 (Acidothermus cellulolyticus, UniProt A0LRH8).
T1 sequence (A0LRH8 1-356): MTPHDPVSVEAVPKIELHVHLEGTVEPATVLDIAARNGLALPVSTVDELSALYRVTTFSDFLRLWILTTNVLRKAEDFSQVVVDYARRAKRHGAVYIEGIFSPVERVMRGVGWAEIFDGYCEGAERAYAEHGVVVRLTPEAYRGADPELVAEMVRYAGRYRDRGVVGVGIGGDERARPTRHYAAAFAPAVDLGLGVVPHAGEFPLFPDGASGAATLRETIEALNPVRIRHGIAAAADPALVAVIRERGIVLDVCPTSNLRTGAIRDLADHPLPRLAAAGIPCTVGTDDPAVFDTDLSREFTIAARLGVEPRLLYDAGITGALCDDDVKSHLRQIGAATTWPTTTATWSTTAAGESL
Kind of assay: absorbance decrease at […] nm. In kind it is biochemical. As to conditions: read-out: Acel0264 / Km; pH 7.5, 30 °C.

For `CCNC(=O)[C@H]1O[C@@H](n2cnc3c(N)ncnc32)[C@H](O)[C@@H]1O` [NECA, 1-(6-Amino-9H-purin-9-yl)-1-deoxy-N-ethyl-β-D-ribofuranuronamide], the Km came to 61 µM.
